Assay [1] deals with Dipeptidyl peptidase 4 (Sus scrofa) (UniProt P22411). The assay can be described thus: Inhibition of pig DPP4 at 500 uM.
For assay [2], the target named is T1, Dipeptidyl peptidase 4 (Homo sapiens, UniProt P27487). The assay can be described thus: Inhibition of DPP4 upto 3.3 mM.
Target sequence in this assay (P27487 whole entry, looked up): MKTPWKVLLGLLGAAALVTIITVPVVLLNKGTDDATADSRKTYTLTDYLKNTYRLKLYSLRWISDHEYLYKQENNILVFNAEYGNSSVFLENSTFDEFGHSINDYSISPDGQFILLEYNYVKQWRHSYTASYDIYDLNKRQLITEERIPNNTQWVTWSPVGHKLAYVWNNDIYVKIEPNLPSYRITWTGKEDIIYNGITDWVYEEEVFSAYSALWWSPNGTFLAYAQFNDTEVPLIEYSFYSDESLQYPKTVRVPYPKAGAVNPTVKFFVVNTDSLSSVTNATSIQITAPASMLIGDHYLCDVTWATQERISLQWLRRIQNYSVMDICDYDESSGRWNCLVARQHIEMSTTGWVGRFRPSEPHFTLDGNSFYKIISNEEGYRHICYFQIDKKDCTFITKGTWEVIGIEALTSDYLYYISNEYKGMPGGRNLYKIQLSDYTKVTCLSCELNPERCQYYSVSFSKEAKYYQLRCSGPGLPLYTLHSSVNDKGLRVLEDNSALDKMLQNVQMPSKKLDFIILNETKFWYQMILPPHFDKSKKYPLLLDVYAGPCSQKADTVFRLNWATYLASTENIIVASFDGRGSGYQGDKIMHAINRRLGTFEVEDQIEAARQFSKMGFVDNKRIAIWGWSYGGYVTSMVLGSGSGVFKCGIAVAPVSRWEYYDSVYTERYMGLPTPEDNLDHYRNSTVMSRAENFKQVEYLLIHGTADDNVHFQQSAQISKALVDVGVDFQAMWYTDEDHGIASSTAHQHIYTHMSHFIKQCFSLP
In assay [3] the target is T1, Dipeptidyl peptidase 4. The assay can be described thus: Inhibition of DPP4 at 30 mM.
Target sequence in this assay (P27487 whole entry, looked up): as above
Assay [4] deals with T1, Dipeptidyl peptidase 4. Kind of assay: Inhibition of DPP4 at 10 mM.
Target sequence in this assay (P27487 whole entry, looked up): as above
Assay [5] has as its target Dipeptidyl peptidase 4 (Sus scrofa, UniProt P22411). Kind of assay: Inhibition of pig DPP4.
Assay [6] has as its target T1, Dipeptidyl peptidase 4. The assay can be described thus: Inhibition of DPP4.
Target sequence in this assay (P27487 whole entry): as the sequence (P27487 whole entry, looked up) above

Among the data in ChEMBL document CHEMBL1140811, “Inhibition of dipeptidyl peptidase-IV (DPP-IV) by atorvastatin” (Bioorg Med Chem Lett, 2008) are inhibition, Activity and IC50 values, retold here.

Activity calls are given as the source filed them. No cut-off for these calls is given here.

Dipeptidyl peptidase 4 (Sus scrofa), sequence (P22411 whole entry, looked up): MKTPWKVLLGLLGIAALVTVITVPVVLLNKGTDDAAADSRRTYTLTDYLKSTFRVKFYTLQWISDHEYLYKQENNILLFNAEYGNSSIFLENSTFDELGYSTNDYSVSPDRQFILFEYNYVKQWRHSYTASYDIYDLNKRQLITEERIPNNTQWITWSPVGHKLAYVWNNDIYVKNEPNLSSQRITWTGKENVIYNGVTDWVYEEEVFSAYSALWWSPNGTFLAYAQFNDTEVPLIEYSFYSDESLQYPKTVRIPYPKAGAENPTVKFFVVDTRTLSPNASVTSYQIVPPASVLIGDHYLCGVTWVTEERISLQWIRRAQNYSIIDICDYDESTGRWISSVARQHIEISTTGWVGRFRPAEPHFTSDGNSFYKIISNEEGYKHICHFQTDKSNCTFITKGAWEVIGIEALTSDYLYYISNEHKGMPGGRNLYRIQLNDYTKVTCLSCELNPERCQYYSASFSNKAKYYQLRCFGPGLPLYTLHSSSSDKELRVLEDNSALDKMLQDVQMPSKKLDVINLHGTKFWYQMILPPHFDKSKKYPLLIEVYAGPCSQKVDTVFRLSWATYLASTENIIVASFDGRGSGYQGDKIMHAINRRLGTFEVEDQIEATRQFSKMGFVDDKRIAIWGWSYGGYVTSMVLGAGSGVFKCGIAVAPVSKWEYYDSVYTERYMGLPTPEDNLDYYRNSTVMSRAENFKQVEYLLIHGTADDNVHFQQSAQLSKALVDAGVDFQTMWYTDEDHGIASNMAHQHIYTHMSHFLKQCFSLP
Dipeptidyl peptidase 4 (Sus scrofa, UniProt P22411), sequence (P22411 whole entry): as the sequence (P22411 whole entry, looked up) above

With `CC(C)c1nc(N(C)S(C)(=O)=O)nc(-c2ccc(F)cc2)c1/C=C/[C@@H](O)C[C@@H](O)CC(=O)O`, the inhibition in assay [1] was 4%. With `CN(C)C(=N)NC(=N)N`, the result at Dipeptidyl peptidase 4 [2] was inactive. Besides, the figures for the inhibition at Dipeptidyl peptidase 4 [3] and against Dipeptidyl peptidase 4 [4] were 21.9% and 12.7%, respectively. Turning to `CC(C)c1c(C(=O)Nc2ccccc2)c(-c2ccccc2)c(-c2ccc(F)cc2)n1CC[C@@H](O)C[C@@H](O)CC(=O)O` [ATORVASTATIN], it took 175 µM to reach half-maximal inhibition on Dipeptidyl peptidase 4 [5] (IC50). This compound had an inhibition in assay [1] of 66%. For `CC(C)n1c(/C=C/[C@@H](O)C[C@@H](O)CC(=O)O)c(-c2ccc(F)cc2)c2ccccc21`, the inhibition in assay [1] was found to be 8%. Regarding `CN(C)C(=N)N=C(N)N` [METFORMIN], the IC50 on Dipeptidyl peptidase 4 [6] turned out to be 29 µM.

The inhibition is the share of the control response that was lost under treatment. High values mean a strong effect, low ones a weak effect. The IC50 is the concentration that inhibits the measured activity by half. Read a high IC50 as lower potency.
